Patent US5036059A, “1,4-Dihydropyridine-3-carboxylate derivatives” (Nippon Shinyaku Company, Limited, priority 1984, dated 1991)

How the values were obtained:
guinea pig heart = experiment: Coronary vasodilating action, constant pressure perfusion of isolated guinea pig heart (Langendorff); details: Cavia porcellus, via coronary artery; for activation at 0.001 mg: 10^-6 gram/heart; for activation at 0.001 mg / activation at 0.0001 mg: read-out: Perfusion Increasing Rate; for activation at 0.0001 mg: 10^-7 gram/heart
Procedure: Constant pressure perfusion samples of guinea pig heart isolated by a method according to Langendorff were treated with the present invention compounds by administration via coronary artery and the effect was examined (Table 1).
With reference to coronary vasodilating action of diltiazem measured by the same method, the increasing rates in perfusion by administration of 10^-7, 10^-6 and 10^-5 gram/heart were 4, 16 and 55%, respectively.

[1] = test system: rats (with normal blood pressure); experiment: Hypotensive action, mean blood pressure of femoral artery in unanesthetized normotensive rats, oral; format: in vivo; details: Rattus norvegicus, read-out: % Decreases in Mean Blood Pressure [at peak effect]; for inhibition in vivo at 1 mg/kg: 1 mg/kg oral; for inhibition in vivo at 3 mg/kg: 3 mg/kg oral; for inhibition in vivo at 10 mg/kg: 10 mg/kg oral
Procedure: Blood pressure of femoral artery of rats (with normal blood pressure) under unanesthetized condition was measured directly using a pressure tranducer.
The present invention compounds were given orally at doses of 1, 3 and 10 mg/kg, and changes in blood pressure were continuously recorded. Percent decreases of mean blood pressure at the peak effect were calculated. The maximum changes in mean blood pressure (%) were shown as "hypotensive action" (Table 2).
Hypotensive action of diltiazem (which is a known hypotensive drug) measured by the same method at the doses of 3, 10 and 30 mg/kg were 0, 11.2 and 33.0%, respectively. Hypotensive action of the compound of Example 4 which is one of the most representative compounds of this invention was tested using spontaneously hypertensive rats and was compared with those of Nifedipine and Diltiazem hydrochloride. The method applied was that the drugs were orally given to the rats of which systolic arterial blood pressure were higher than 180 mmHg when it was measured plethysmographically using tail arteries. (Table 3)

SMILES | activation at 0.001 mg (guinea pig heart) | activation at 0.0001 mg (guinea pig heart) | inhibition in vivo at 1 mg/kg [1] | inhibition in vivo at 3 mg/kg [1] | inhibition in vivo at 10 mg/kg [1] | activation at 1e-05 g/heart, 1e-05 g/heart (guinea pig heart; 10^-5 gram/heart, read-out: increasing rate in perfusion) | inhibition in vivo at 30 mg/kg ([1]; 30 mg/kg oral)
CC1=C(C(=O)OCCN(C)Cc2ccccc2)C(c2cccc(Cl)c2Cl)C(P2(=O)OCC(C)(C)CO2)=C(C)N1 (stereo not drawn) [Example 59, 2-(N-Benzyl-N-methylamino)-ethyl 4-(2,3-dichlorophenyl)-2,6-dimethyl-5-(5,5-dimethyl-2-oxo-1,3,2-dioxaphosphorinan-2-yl)-1,4-dihydropyridine-3-carboxylate] | 33% | 24% | 7.1% | 29.1% | 35.1% | – | –
CCOC(=O)C1=C(C)NC(C)=C(P2(=O)OCC(C(C)C)CO2)C1c1cccc([N+](=O)[O-])c1 (stereo not drawn) [Example 32, Ethyl 2,6-dimethyl-4-(3-nitrophenyl)-5-(5-isopropyl-2-oxo-1,3,2-dioxaphosphorinan-2-yl)-1,4-dihydropyridine-3-carboxylate] | 77% | 24% | 7.8% | 21.2% | 30.5% | – | –
COC(=O)C1=C(C)NC(C)=C(P2(=O)OCCCO2)C1c1ccccc1C(F)(F)F (stereo not drawn) [Example 50, Methyl 2,6-dimethyl-5-(2-oxo-1,3,2-dioxaphosphorinan-2-yl)-4-(2-trifluoromethylphenyl)-1,4-dihydropyridine-3-carboxylate] | 46% | 15% | 42.3% | 44.3% | 47.2% | – | –
COc1ccc([C@@H]2Sc3ccccc3N(CCN(C)C)C(=O)[C@@H]2OC(C)=O)cc1 [diltiazem, reference compound] | 16% | 4% | – | 0% | 11.2% | 55% | 33%
CC1=C(C(=O)OCCN(C)Cc2ccccc2)C(c2ccccc2C(F)(F)F)C(P2(=O)OCCCO2)=C(C)N1 (stereo not drawn) [Example 52] | 62% | 10% | 18.4% | 37.2% | 42.8% | – | –
CCC1(CC)COP(=O)(C2=C(C)NC(C)=C(C(=O)OCCN(C)Cc3ccccc3)C2c2cccc([N+](=O)[O-])c2)OC1 (stereo not drawn) [Example 22, 2-(N-Benzyl-N-methylamino)-ethyl 5-(5,5-diethyl-2-oxo-1,3,2-dioxaphosphorinan-2-yl)-2,6-dimethyl-4-(3-nitrophenyl)-1,4-dihydropyridine-3-carboxylate] | 31% | 21% | 7.3% | 10.4% | 18.4% | – | –
CC1=C(C(=O)OC2CCN(Cc3ccccc3)CC2)C(c2cccc([N+](=O)[O-])c2)C(P2(=O)OCCCO2)=C(C)N1 (stereo not drawn) [Example 3, N-Benzyl-4-piperidinyl 2,6-dimethyl-4-(3-nitrophenyl)-5-(2-oxo-1,3,2-dioxaphosphorinan-2-yl)-1,4-dihydropyridine-3-carboxylate] | 18% | 10% | 8.2% | 11.1% | 20.9% | – | –
CC1=C(C(=O)OCCN(C)Cc2ccccc2)C(c2ccccc2C(F)(F)F)C(P2(=O)OCC(C)(C)CO2)=C(C)N1 (stereo not drawn) [Example 62, 2-(N-Benzyl-N-methylamino)-ethyl 2,6-dimethyl-5-(5,5-dimethyl-2-oxo-1,3,2-dioxaphosphorinan-2-yl)-4-(2-trifluoromethylphenyl)-1,4-dihydropyridine-3-carboxylate] | 70% | 19% | 10.6% | 37.4% | 48.3% | – | –
CCOC(=O)C1=C(C)NC(C)=C(P2(=O)OCCCO2)C1c1cccc(Cl)c1Cl (stereo not drawn) [Example 57, Ethyl 4-(2,3-dichlorophenyl)-2,6-dimethyl-5-(2-oxo-1,3,2-dioxaphosphorinan-2-yl)-1,4-dihydropyridine-3-carboxylate] | 17% | 11% | – | – | – | – | –
CCOC(=O)C1(C(=O)OCC)COP(=O)(C2=C(C)NC(C)=C(C(=O)OC)C2c2ccccc2[N+](=O)[O-])OC1 (stereo not drawn) [Example 46, Methyl 5-(5,5-diethoxycarbonyl-2-oxo-1,3,2-dioxaphosphorinan-2-yl)-2,6-dimethyl-4-(2-nitrophenyl)-1,4-dihydropyridine-3-carboxylate] | 19% | 12% | – | – | – | – | –
CCC1COP(=O)(C2=C(C)NC(C)=C(C(=O)OC)C2c2ccccc2[N+](=O)[O-])OC1 (stereo not drawn) [Example 30, Methyl 5-(5-ethyl-2-oxo-1,3,2-dioxaphosphorinan-2-yl)-2,6-dimethyl-4-(2-nitrophenyl)-1,4-dihydropyridine-3-carboxylate] | 26% | 13% | – | – | – | – | –
COC(=O)C1=C(C)NC(C)=C(P2(=O)OCC3(CCCCC3)CO2)C1c1cccc([N+](=O)[O-])c1 (stereo not drawn) [Example 40, Methyl 2,6-dimethyl-4-(3-nitrophenyl)-5-(3-oxo-2,4-dioxa-3-phosphoaspiro(5,5)undecan-3-yl)-1,4-dihydropyridine-3-carboxylate] | 82% | 29% | – | – | – | – | –
COC(=O)C1=C(C)NC(C)=C(P2(=O)OCCCO2)C1c1ccccc1OC(F)F (stereo not drawn) [Example 53, Methyl 4-(2-difluoromethoxyphenyl)-2,6-dimethyl-5-(2-oxo-1,3,2-dioxaphosphorinan-2-yl)-1,4-dihydropyridine-3-carboxylate] | 25% | 16% | 24.5% | 45.4% | 49.7% | – | –
CCC1(CC)COP(=O)(C2=C(C)NC(C)=C(C(=O)OC)C2c2ccccc2[N+](=O)[O-])OC1 (stereo not drawn) [Example 24, Methyl 5-(5,5-diethyl-2-oxo-1,3,2-dioxaphosphorinan-2-yl)-2,6-dimethyl-4-(2-nitrophenyl)-1,4-dihydropyridine-3-carboxylate] | 41% | 12% | – | – | – | – | –
CCOC(=O)C1=C(C)NC(C)=C(P2(=O)OCC(C)(C)CO2)C1c1cccc([N+](=O)[O-])c1 (stereo not drawn) [Example 8, Ethyl 2,6-dimethyl-5-(5,5-dimethyl-2-oxo-1,3,2-dioxaphosphorinan-2-yl)-4-(3-nitrophenyl-1)-1,4-dihydropyridine-3-carboxylate] | 33% | 11% | 8.1% | 15.5% | 37.1% | – | –
CCOC(=O)C1=C(C)NC(C)=C(P2(=O)OCC3(CCC3)CO2)C1c1ccccc1[N+](=O)[O-] (stereo not drawn) [Example 39, Ethyl 2,6-dimethyl-4-(2-nitrophenyl)-5-(7-oxo-6,8-dioxa-7-phosphaspiro(3,5)nonan-7-yl)-1,4-dihydropyridine-3-carboxylate] | 31% | 12% | – | – | – | – | –
CC1=C(C(=O)OCCN(C)Cc2ccccc2)C(c2cccc([N+](=O)[O-])c2)C(P2(=O)OC(C)CC(C)O2)=C(C)N1 (stereo not drawn) [Example 17, 2-(N-Benzyl-N-methylamino)-ethyl 2,6-dimethyl-5-(4,6-dimethyl-2-oxo-1,3,2-dioxaphosphorinan-2-yl)-4-(3-nitrophenyl)-1,4-dihydropyridine-3-carboxylate] | 23% | 10% | 24.8% | 36.8% | 47% | – | –
CC1=C(C(=O)OCCN(C)Cc2ccccc2)C(c2cccc([N+](=O)[O-])c2)C(P2(=O)OC(C)(C)C(C)(C)O2)=C(C)N1 (stereo not drawn) [Example 48, 2-(N-Benzyl-N-methylamino)-ethyl 2,6-dimethyl-4-(3-nitrophenyl)-5-(2-oxo-4,4,5,5-tetramethyl-1,3,2-dioxaphospholan-2-yl)-1,4-dihydropyridine-3-carboxylate] | 35% | 13% | – | – | – | – | –
CC1=C(C(=O)OC(C)C)C(c2ccccc2[N+](=O)[O-])C(P2(=O)OCCCO2)=C(C)N1 (stereo not drawn) [Example 6, Isopropyl 2,6-dimethyl-4-(2-nitrophenyl)-5-(2-oxo-1,3,2-dioxaphosphorinan-2-yl)-1,4-dihydropyridine-3-carboxylate] | 52% | 10% | – | – | – | – | –
